Measured values as given in paper PMC10345685, “Anthocyanin and proanthocyanidin from Aronia melanocarpa (Michx.) Ell.: Purification, fractionation, and enzyme inhibition” (Food Science & Nutrition, 2023).
Read-outs that look alike come from different tables or passages of the source.

Legend:
[1] = molecular target: T1, Lipase from human porcine pancreas (Sus scrofa, UniProt P00591); assay: Lipase inhibition (pNP laurate substrate); format: biochemical; conditions: comparison among the anthocyanins / proanthocyanidin fractions
T1 construct: purchased Sigma‐Aldrich, Inc (Shanghai, China)
T1 sequence (P00591 1-450): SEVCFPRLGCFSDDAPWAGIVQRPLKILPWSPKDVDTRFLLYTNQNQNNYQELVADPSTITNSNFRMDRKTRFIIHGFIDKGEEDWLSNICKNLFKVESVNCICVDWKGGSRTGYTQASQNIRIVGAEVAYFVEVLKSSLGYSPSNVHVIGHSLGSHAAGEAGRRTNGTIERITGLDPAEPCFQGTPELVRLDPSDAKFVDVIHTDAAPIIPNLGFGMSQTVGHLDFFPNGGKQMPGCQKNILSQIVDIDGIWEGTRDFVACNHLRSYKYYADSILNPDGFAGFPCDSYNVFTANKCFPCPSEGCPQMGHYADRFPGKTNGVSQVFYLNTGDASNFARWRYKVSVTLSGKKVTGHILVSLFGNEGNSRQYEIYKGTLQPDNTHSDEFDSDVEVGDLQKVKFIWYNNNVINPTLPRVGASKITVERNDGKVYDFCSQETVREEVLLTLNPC
Excerpt: (§1) All the chemicals used for analyses were of analytical grade and high‐performance liquid chromatography (HPLC) chemicals were of HPLC purity and were all purchased from Sinopharm Chemical Reagent Co., Ltd (Shanghai, China). Lipase from […] porcine pancreas (EC 3.1.1.3), α‐amylase from human pancreas (EC 3.2.1.1), and α‐glucosidase from Bacillus stearothermophilus (EC 3.2.1.20) were obtained from Sigma‐Aldrich, Inc (Shanghai, China). Standards of cyanidin 3‐galactoside, cyanidin 3‐arabinoside, cyanidin 3‐xyloside, cyanidin 3‐glucoside, catechin, and epicatechin were obtained from Sigma‐Aldrich, Inc. (Shanghai, China). Amberlite XAD7HP, Sephadex LH‐20, and ENVI 18 DSK SPE were obtained from Sigma‐Aldrich, Inc (Shanghai, China).
The lipase inhibitory activity was determined according to the method described by Tan et al. ([2017]) with modifications (Table 3). Three hundred and fifty μL phosphate buffer (0.05 M, pH 7.6), 150 μL of porcine lipase enzyme solution (50 mg/mL), and 50 μL of fractionated compounds were added in a centrifuge tube (1.5 mL size) and incubated at 37°C for exactly 10 min. Then, 450 μL pNP laurate substrate was added to the reaction mixture and blended, followed by incubation at 37°C for 120 min without light. The reaction mixture was centrifuged for 10 min at 8000 g and the supernatant of 200 μL was taken into a 96‐well plate to determine the absorbance at 405 nm. The percentage inhibition was calculated using Equation 4. Lipase inhibitory activity was measured at five different concentrations, and a logarithmic regression curve was established to calculate IC50 values (Tan et al., [2017]). (4) Lipase inhibitory activity%=1−As−Ab/At−Ac×100%

α‐Amylase = conditions: cited from earlier work
α‐Glucosidase = conditions: cited from earlier work
Lipase = conditions: cited from earlier work
[2] = molecular target: T2, α‐amylase from human pancreas (Homo sapiens, UniProt P04746); assay: α‐Amylase inhibition (DNS method, soluble starch); format: biochemical; conditions: comparison among the anthocyanins / proanthocyanidin fractions
T2 construct: purchased Sigma‐Aldrich, Inc (Shanghai, China)
T2 sequence (P04746 16-511): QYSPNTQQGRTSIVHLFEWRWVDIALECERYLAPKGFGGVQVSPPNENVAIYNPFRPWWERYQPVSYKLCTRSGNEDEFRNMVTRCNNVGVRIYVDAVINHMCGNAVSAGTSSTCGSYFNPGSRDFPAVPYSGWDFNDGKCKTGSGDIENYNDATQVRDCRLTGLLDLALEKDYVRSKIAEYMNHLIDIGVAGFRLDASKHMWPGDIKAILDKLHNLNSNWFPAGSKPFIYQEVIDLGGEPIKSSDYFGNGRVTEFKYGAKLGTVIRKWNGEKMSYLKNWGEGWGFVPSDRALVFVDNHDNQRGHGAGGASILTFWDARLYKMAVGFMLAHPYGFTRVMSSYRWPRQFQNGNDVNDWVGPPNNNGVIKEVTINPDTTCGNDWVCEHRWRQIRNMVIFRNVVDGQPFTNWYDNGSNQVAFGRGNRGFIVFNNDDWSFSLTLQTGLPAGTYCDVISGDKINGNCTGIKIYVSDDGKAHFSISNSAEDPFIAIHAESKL
Excerpt: as §1, with “Amberlite XAD7HP, Sephadex LH‐20, and ENVI 18 DSK SPE were obtained from Sigma‐Aldrich, Inc (Shanghai, China).” left out
α‐Amylase inhibitory activity was determined using the method from Tan et al. ([2017]), with a slight modification as Table 1 indicates. […] Then, 200 μL of the mixture was taken and added to a 96‐well plate and the absorption at 540 nm was determined. To eliminate the background absorbance produced by the fractionated compounds, an appropriate extract control without enzyme was included. α‐Amylase inhibitory activity was measured at five different concentrations, and a logarithmic regression curve was established to calculate IC50 values (mg/mL) (Tan et al., [2017]). The α‐amylase inhibitory activity was expressed as function 2 and the As, Ab, At, and Ac indicated the absorbance in different solutions as shown in Table 1. […]

[3] = nf, not found, ref Worsztynowicz et al., 2014
[4] = ref Akkarachiyasit et al., 2010

SMILES	inhibition effect on lipase (in words) [1]	IC50 values α‐Amylase (α‐Amylase; [3])	IC50 values α‐Glucosidase (α‐Glucosidase; ref Bräunlich et al., 2013)	IC50 values Lipase (Lipase; [3])	IC50 (α‐Amylase; [4]) [µM]	IC50 values α‐Glucosidase (α‐Glucosidase; for sucrose, ref Adisakwattana et al., 2009) [µg/mL]	inhibition effect on α‐amylase (in words) [2]	IC50 values α‐Amylase (α‐Amylase; [4]) [mg/mL]	IC50 values α‐Glucosidase (α‐Glucosidase; for sucrose, ref Akkarachiyasit et al., 2010) [µg/mL]	IC50 values Lipase (Lipase; ref Vijayaraj et al., 2019) [µg/mL]
Oc1cc(O)c2cc(OC3OCC(O)C(O)C3O)c(-c3ccc(O)c(O)c3)[o+]c2c1 (centres unmarked) [Cyanidin 3‐arabinoside, cyanidin 3‐arabinoside]	no inhibition effects	3.98 ± 0.10 mg/mL (Worsztynowicz et al., [2014])	0.37 ± 0.08 μg/mL (Bräunlich et al., [2013])	nf (Worsztynowicz et al., [2014])	–	–	–	–	–	–
OCC1OC(Oc2cc3c(O)cc(O)cc3[o+]c2-c2ccc(O)c(O)c2)C(O)C(O)C1O (centres unmarked) [Cyanidin 3‐galactoside, cyanidin 3‐galactoside]	no inhibition effects	5.16 ± 0.06 mg/mL	1.54 ± 0.1 µg/mL	nf (Worsztynowicz et al., [2014])	> 1000	224.5 ± 22.45	–	–	–	–
OCC1OC(Oc2cc3c(O)cc(O)cc3[o+]c2-c2ccc(O)c(O)c2)C(O)C(O)C1O (centres unmarked) [Cyanidin 3‐glucoside, cyanidin 3‐glucoside]	strongest inhibition effects	1.74 ± 0.04 mg/mL	0.87 ± 0.2 µg/mL	1170 ± 40 µg/mL	–	–	strongest inhibition effects	0.1347 ± 0.00449	435.53 ± 22.45	84.54 ± 2.94
Oc1cc(O)c2cc(OC3OCC(O)C(O)C3O)c(-c3ccc(O)c(O)c3)[o+]c2c1 (centres unmarked) [Cyanidin 3‐xyloside, cyanidin 3‐xyloside]	no inhibition effects	nf (Worsztynowicz et al., [2014])	5.5 ± 1.6 μg/mL (Bräunlich et al., [2013])	nf (Worsztynowicz et al., [2014])	–	–	no effect	–	–	–
